Where “and” joins values, the source holds several entries; their conditions need not be identical. Equal values may be shown once.
Experiments:
[1] = test system: double-stranded DNA (26ds); experiment: Spectrofluorimetric titration with 26ds DNA; format: binding; conditions: for Apparent association constant Ka (26ds): ligand 1 μM, K-cacodylate pH 7.4, 60 mM K+, 25°C; for Hill constant h (26ds): one-site saturation binding Hill slope model
Protocol: To characterize the binding of IQc to DNA structures, spectrofluorimetric titration assays were performed with the non-substituted (2a), mono-alkyldiamine (2d) and di-alkyldiamine (3e) derivatives using un-labelled KRAS21R G4 and 26ds-DNA. […] Their fluorescence intensity was proportional to concentration up to 10 μM. […] The fluorescence titration data (Figure 4) was fitted to the Scatchard model[25] (Figure 4, insets). […] Scatchard plots of 2d and 3e (Figure 4b–c, insets) are all concave-down nonlinear curves, which may denote different positive cooperative binding sites in G4, with more than one equivalent and non-independent binding sites. […] Therefore, association constants for 2d and 3e were obtained from the one-site saturation binding Hill slope model (Figure 4b–c). These are apparent binding constants, i.e. they are macroscopic Ka which reflect the total binding.
Figure 4 Fluorescence data of (a) 2a, (b) 2d, and (c) 3e (1 μM) in K-cacodylate buffer (pH 7.4, containing 60 mM K^+) at 25°C, titrated with KRAS21R and HT21 G4s, and 26ds, fitted to the saturation binding equations and Scatchard model (insets).
Fluorescence data were collected with a λex of 290 nm and a λem around 475 nm for 2d and 3e, and a λex of 275 nm and a λem around 460 for 2a. Test compounds were prepared as 1 mM in HPLC-grade water (10% DMSO) stock solutions. The rest of the dilutions were performed using K-cacodylate buffer (pH = 7.4, containing 60 mM K^+). The G4 single-strand oligonucleotide sequences were initially diluted from the storage solution (100 μM) with K-cacodylate, to a stock solution at 25 μM. The titration data were obtained by adding aliquots of previously annealed G4 (heating to 95°C for 10 min, followed by slow cooling to RT) to a solution of the indolo[3,2-c]quinoline ligand (1 μM) in K-cacocylate buffer at 25°C (additional details in Supplementary Information).
Figure S7. Fluorescence titrations of 1 μM indolo[3,2-c]quinoline 2d (1µM) with KRAS21R G4 and 26ds DNA in K-cacodylate buffer pH 7.4, containing 60 mM K+ at 25 °C.
Concentration of DNA increase from the top to the bottom (grey lines) Excitation […]
Figure S8. Fluorescence titrations of 1 μM indolo[3,2-c]quinoline 3e (1µM) with KRAS21R […]
The titration data obtained were used to construct Scatchard plots with the concentration of bound and free ligand (Cb and Cf, respectively). […]
number of moles of ligand bound to 1 mol of G4 (r = Cb/CDNA) were calculated.
Saturation binding isotherms were represented as Scatchard plots, by plotting r/Cf versus r and evaluated according to the model of McGhee and von Hippel. Dissociation constants were determined by fitting the titration experimental data to one-site saturation binding equation or to one-site saturation binding to the Hill slope equation supplied with the GraphPad PRISM software (GraphPad, Version 5.00, San Diego, CA).
Association constants (Ka) were calculated from dissociation constants (Kd). Scatchard lines represented in the Scatchard plots were calculated from the data fitting to the binding equations (x = 0, y = Fmax/Kd; x = Fmax , y = 0; slope = -Ka). […]

[2] = test system: KRAS21R G4; experiment: FRET melting assay, KRAS21R G4; format: binding, human; conditions: G4 0.2 μM, ligand 1 μM, K-cacodylate buffer pH 7.4, 60 mM K+
Protocol: Fluorescence resonance energy transfer (FRET) studies with DNA sequences labelled at the 5′ and 3′ ends, were conducted to evaluate the G4 DNA stabilizing properties of IQcs (at 0.1 to 5 μM ligand concentrations). The G4-forming sequence KRAS21R[11], together with T-loop, a 26-mer hairpin double-stranded DNA (ds-DNA) sequence were used in the first screening assay. Reproducible IQc dose-dependent melting curves (Sup. Inf.; Figure S3) and stabilization temperature (ΔTm) values were obtained (Figure 2 and Table S5).
Figure 2 FRET stabilization temperatures (ΔTm) of KRAS21R G4 and hairpin ds-DNA (T-loop) at 0.2 μM, in K-cacodylate buffer (pH = 7.4, 60 mM K^+), stabilized by IQc derivatives and TMPyP4 at 1 μM. ^a) SD ≤ 0.2°C. TEXT PRINTED IN THE PICTURE: TMPyP4: ΔTm / °C ^a) (T-Loop): 16.0; ΔTm / °C ^a) (KRAS21R): 25.1 | 3e: ΔTm / °C ^a) (T-Loop): 6.5; ΔTm / °C ^a) (KRAS21R): 22.0 | 3d: ΔTm / °C ^a) (T-Loop): 5.6; ΔTm / °C ^a) (KRAS21R): 19.9 | 2d: ΔTm / °C ^a) (T-Loop): 6.1; ΔTm / °C ^a) (KRAS21R): 15.1 | 2a: ΔTm / °C ^a) (T-Loop): 1.5; ΔTm / °C ^a) (KRAS21R): 4.4 […]
Oligonucleotide sequences were purchased from Eurofins MWG Synthesis GmbH, Germany or STAB VIDA Genomics Lab, Caparica, Lisbon, Portugal. The labelled oligonucleotides used in the FRET assays had attached the donor fluorophore FAM (6-carboxyfluorescein) and the acceptor fluorophore TAMRA (6-carboxytetramethylrhodamine): KRAS21R: 5′-FAM-[…]-TAMRA-3′; KRAS32R: 5′-FAM-[…]-TAMRA-3′; UTR-1: 5′-FAM-GCGGCGGCGGAGG-TAMRA-3′; UTR-2: 5′-FAM-[…]-TAMRA-3; T-Loop:5′-FAM-[…]-TAMRA-3′; F21T: 5′-FAM-[…]-TAMRA-3′. Non-labelled oligonucleotides were used in FRET competition assays and in the spectroscopic studies: ds26: - d(5′-CAATCGGATCGAATT CGATCCGATTG-3′); KRAS21R: 5′-[…]-3′; HT21: 5′-[…]-3′. Each oligonucleotide was initially diluted to a storage solution at 100 μM in nuclease-free water (not DEPC-treated), purchased from Ambion Applied Biosystems UK.
The ability of indolo[3,2-c]quinolines to stabilize DNA sequences was investigated using a Fluorescence Resonance Energy Transfer (FRET) assay as reported elsewhere.
Figure S3 (cont.)| Concentration-dependent (0.1, 0.5, 1, 2, 3, 4 and 5 µM) FRET melting profiles of G4 structures and T-loop DNA with indolo[3,2-c]quinoline derivatives 1a, 2a-g and 3d-j in K-cacodylate buffer (pH 7.4, 60 mM K+). […]
Table S5 | FRET stabilization temperatures (ΔTm) of G4s sequences and ds-DNA (0.2 µM) stabilized by […]

| SMILES | Apparent association constant Ka (26ds) [1] | Hill constant h (26ds) [1] | FRET stabilization temperature ΔTm (KRAS21R) [2] [°C] |
| --- | --- | --- | --- |
| CCN(CC)CCCNc1ccc2c(c1)[nH]c1c2c[n+](C)c2ccc(NCCCN(CC)CC)cc12.[Cl-] [3e] | 3.2e+06 M⁻¹ | 2.5 | 22.0 |
| CCN(CC)CCCNc1ccc2c(c1)c1[nH]c3ccccc3c1c[n+]2C [2d] | 2.8e+06 M⁻¹ | 1.5 | 15.1 |
| C[n+]1ccc(-c2c3nc(c(-c4cc[n+](C)cc4)c4ccc([nH]4)c(-c4cc[n+](C)cc4)c4ccc([nH]4)c(-c4cc[n+](C)cc4)c4nc2C=C4)C=C3)cc1 [TMPyP4, reference compound] |  |  | 25.1 |
| Cn1cc2c3ccccc3nc-2c2cc(Br)ccc21 [2a, 2-bromo-5-methyl-indolo[3,2-c]quinoline] | 0.8 × 10^6 M^−1 and 0.8/-- × 10^6 M^−1 |  |  |
| CCN(CC)CCCNc1ccc2[nH]c3c(c[n+](C)c4ccc(NCCCN(CC)CC)cc34)c2c1.[Cl-] [3d] |  |  | 19.9 |
